Experimental data reported in patent US8217068B2, “Compound with anesthetics activity, methods for its production and pharmaceutical compositions comprising the same” (Universidade Federal de Pernambuco—UFPE, priority 2007, dated 2012).

Experiments:
Assay type in all cases: in vivo
male Swiss mice [1] = assay: Isobolographic analysis of the combination with morphine (analgesic effect, DE50); settings: i.p., combination of fractions of DE50 of each drug, FIG. 3
Experimental: First, we determined the dose of morphine that cause 50% of maximal analgesic effect (DE50) after administration (i.p.) in incremental doses. […] Fraction of association of DE50 of each drug was administrated and the DE50 of combination was determined. A isobolographic analysis (FIG. 3) using the DE50 of each drug and of the combination was performed using a computer program (Life Sci 1989 45: 947-961) to determine the type of interaction.

male Swiss mice [2] = assay: Hot Plate Test, analgesic activity (% AA) after i.p. administration
Experimental: The activity of several compounds with action in central nervous system as opioids, which the main drug is morphine, and the alpha-2 adrenoceptor agonist as clonidine have been identified by this method.
The analgesic activity of LPSF-PT-31, GIRSUPAN was investigated in male Swiss mice weighting 18-24 grams using the Hot Plate Test method (Brain Res. 1983, 245-252). The animals were positioned on a hot plate stabilized at 52° C. using the equipment Analgesic Meter-Letica LE 7406. When the pain threshold was achieved the animals raised and licked the front paw to cool down the temperature. The time between positioning the animals on the plate and lick the paw was the latency of the pain reaction. The maximal time (cut-off) allowed to the animals staying on the hot plate was three times the latency time measured on the control. The cut-off was very important to avoid skin damage of the paw.
The analgesic effect of the tested compounds was converted to a unit denominated analgesic activity (% AA) (Brain Res. 1983, 245-252) calculated by equation % AA=((post-drug latency)−(control latency))/((cut off)−(control latency))×100. The experimental protocol used to test the analgesic effect of the compound LPSF-PT-31, GIRSUPAN, consisted to measure the AA in the control condition (before drug administration) and after (i.p.) intraperitoneal administration of increasing dose (1, 5, 10 and 15 mg·kg^−1).
In another experimental group, dimethyl sulfoxide used as vehicle for diluting LPSF-PT-31, GIRSUPAN, was i.p. administered at same volume used for the tested drug. The AA was measured until complete recovery to the control condition.

male Swiss mice [3] = assay: Sedative activity by measuring motor activity (Motor Activity Monitor)
Experimental: The sedative activity of 3-(2-chloro-6-fluoro-benzyl)-imidazolidine-2,4-dione LPSF-PT-31, GIRSUPAN was investigated in male Swiss mice weighting 18-24 grams by measuring the motor activity (Motor Activity Monitor, Letica LE 8811). In this equipment the animals are positioned in an open square field and a set of invisible beans cross the field. The interruption of the beans was used to quantify the motor activity. After a period of adaptation the motor activity of the animals was measured during 20 min.
Decrease of motor activity represents reduction of brain activity and this observation is useful to investigate the effect of drug with sedative, hipnotic, anxyolitic and general anesthetic properties (Bioorg. Med. Chem. 2006, 14:632-640). Thus, measurement of motor activity is not a method to identify a specific group of pharmacological class.

Wistar male rats [4] = assay: Hot Plate analgesic effect after intrathecal administration
Experimental: Stimulation of alpha-2 adrenoceptors distributed at spinal cord cause analgesia. […] Thus, the analgesic activity of LPSF-PT-31, GIRSUPAN was investigated after intrathecal administration. Wistar male rats weighting 240-280 grams were positioned in abdominal under light general anesthesia with sevoflurane. Puncture between L4-L5 was performed with low diameter needle (29 G) and LPSF-PT-31, GIRSUPAN was injected at dose of 20, 40, 80 or 160 μg diluted in constant volume of 50 μl. Sevoflurane was the elected anesthetic due to low blood solubility causing a fast induction and recovery of anesthesia.
Thus, the animals were completely recovered few minutes after punction and injection LPSF-PT-31, GIRSUPAN and AA activity started to measure from 10 minutes. […] The maximal analgesic effect measured by Hot Plate was ca. 40% sustained by 180 minutes. This intensity of analgesic effect is observed with alpha-2 adrenoceptor agonist as clonidine.

Wistar male rats [5] = assay: Activity on cardiovascular system: blood pressure and EKG recording in awake animals; settings: 10 mg/kg single dose through external jugular vein
Experimental: Hypotension and reduction of heart rate are the major concern of alpha-2 adrenoceptor agonist as clonidine. These effects are justified by decreasing the central nervous system sympathetic outflow due to activation of alpha-2 adrenoceptor. With the aim to investigate if LPSF-PT-31, GIRSUPAN could cross the brain barrier and reduces the hemodynamic response, Wistar male rats weighing 230-280 grams were prepared for blood pressure and electrocardiogram (EKG) recording. The heart rate was estimated by analysis of EKG. LPSF-PT-31, GIRSUPAN (10 mg/kg) was injected trough external jugular vein in a single dose in awaked animals. The blood pressure and the heart rate were not changed showing that LPSF-PT-31, GIRSUPAN is a stable compound for the cardiovascular system differently that occurs with clonidine.

SMILES: O=C1CNC(=O)N1Cc1c(F)cccc1Cl [LPSF-PT-31, 3-(2-chloro-6-fluoro-benzyl)-imidazolidine-2,4-dione]
- type of interaction with morphine (isobolographic analysis of DE50) (male Swiss mice [1]): strong synergic interaction
- maximal effect (% AA) (male Swiss mice [2]; 15 mg·kg^−1 i.p.): about 80 % AA
- duration of plateau of analgesic effect (male Swiss mice [2]; i.p.): 40 to 50 min
- time of peak of analgesic effect (male Swiss mice [2]; i.p.): approximately 20 min
- time to complete recovery from the analgesic effect (male Swiss mice [2]; i.p.): 100 to 120 min
- effect on % AA (analgesic activity) (male Swiss mice [2]; i.p. 1, 5, 10 and 15 mg·kg^−1, hot plate 52° C., FIG. 1): increased the % AA in a dose-dependent manner
- reversal of analgesic effect by naloxone (antagonist of opioid receptor) (male Swiss mice [2]; naloxone 1 mg·kg^−1 i.p.): partially reversed
- reversal of analgesic effect by flumazenil (antagonist of benzodiazepine receptor) (male Swiss mice [2]; previous treatment with flumazenil 0.3 mg·kg^−1): not reversed
- reversal of analgesic effect by yohimbine (antagonist of alpha-2 adrenoceptor) (male Swiss mice [2]; yohimbine 5 mg·kg^−1 i.p., compound 10 mg·kg^−1, FIG. 2): completely reversed
- reduction of motor activity (male Swiss mice [3]; 10 mg·kg^−1, motor activity measured during 20 min, FIG. 5): ca. 80%
- intensity of motor activity reduction versus positive control (male Swiss mice [3]; 10 mg·kg^−1, positive control midazolam, FIG. 5): comparable to midazolam
- reversal of decrease of motor activity by yohimbine (male Swiss mice [3]; yohimbine): completely reversed
- duration of maximal analgesic effect (Wistar male rats [4]; intrathecal): 180 min
- maximal analgesic effect measured by Hot Plate (Wistar male rats [4]; intrathecal): ca. 40%
- effect on pain reaction after intrathecal administration (Wistar male rats [4]; intrathecal 20, 40, 80 or 160 μg in 50 μl, FIG. 4): reduces the pain reaction after intrathecal administration in a dose-dependent manner
- blood pressure (Wistar male rats [5]): not changed
- heart rate (estimated by analysis of EKG) (Wistar male rats [5]): not changed
